Test results taken from patent US20010042520A1, “Method for producing model animals for itching induced by disruption of cutaneous barrier function” (priority 2000, published 2001).

Key:
Assay type in all cases: in vivo, male ICR mice
[1] = tested on: scratching action induced by the disruption of the cutaneous barrier function of mice; experiment: Scratching action of mice with disrupted cutaneous barrier function (acetone/diethylether mixture and distilled water, twice daily for 5 days); conditions: for number of the scratching action based on that of the control group: 120 minutes recording, control average = 100%, average ± standard error, 8 mice; for number of the scratching action bouts per 120 minutes: 10% aqueous solution, control group 126.5±20.8, significant
From the text: (§1) A rostral part (4 cm^2, i.e. 2 cm×2 cm) of the back skin in each of 10 male ICR mice was shaved. Four days after the shaving, the following test was started: The skin was covered with a 2 cm×2 cm absorbent cotton impregnated with a mixture of acetone and diethylether (1:1) for 15 seconds. The skin was wiped to remove superfluous solvent, then covered with an absorbent cotton impregnated with distilled water for 30 seconds, and wiped in the same manner as that described above. This treatment for disrupting the cutaneous barrier function of the skin was conducted twice in daily at intervals of at least 8 hours for 5 days. In a control group, only the shaving was conducted.
On the next day after the completion of the 5 days treatment for disrupting the skin barrier function, each mouse was placed in each section of an acrylic acid resin cage (26×18×33 cm) divided into four sections (each section: 13×9×33 cm). After the mice was acclimatized to the cage in unmanned environment for 60 minutes, the action of each mouse was recorded for 120 minutes with a 8 mm video camera placed above the cage in such a manner that the 4 sections are in one scene. The scratching action was observed by playing back the video tape. The number of the scratching action by which the tip of a toe of a hind limb of the mouse touched the shaved part of the skin in 120 minutes was counted by the visual observation. One scratching action was a series of action beginning when the mouse raised its hind limb for starting the scratching and ending when the animal lowers its hind limb.
The effect of Terfenadine, which is a histamine H1 receptor antagonist, and that of Naloxone, which is an opioid antagonist, for relieving the itching were determined with the same test materials as those in Example 1. The barrier function-disrupting treatment was conducted in the same manner as that of Example 1. On the next day after the completion of the 5 days barrier function disrupting treatment, the scratching action of mice was recorded for 120 minutes in the same manner as that of Example 1. The observation of the behavior of the mice and the counting of the number of times of the scratching action were conducted in the same manner as that of Example 1. 10 mg/kg of Terfenadine which is the histamine H1 receptor antagonist, was perorally administered at 30 minutes before the starting to record the scratching action, or 1 mg/kg of Naloxone, which is an opioid receptor antagonist, was subcutaneously injected at 15 minutes before the starting to record the scratching action. […]
(§2) The effect of glycerol (humectant) on the skin manifestations and itching induced by the barrier disruption treatment of the present invention was determined by using the test animals similar to those used in Example 1. […] The skin manifestations were examined by the visual observation and the determination of hydration of the stratum corneum based on the relative electrostatic capacitance determined with Corneometer CM 825 (Courage+Khazaka Electronics, Cologne, Germany). Hydration of the stratum corneum was determined before starting the first barrier disrupting treatment every day and on the next day after the completion of the five days barrier disruption treatment. As for the scratching action, the scratching action of each mouse was filmed and recorded for 120 minutes in the same manner as that in Example 1 on next day after the completion of the five days barrier disruption treatment. […]

[2] = tested on: hydration of the stratum corneum; experiment: Hydration of the stratum corneum by relative electrostatic capacitance (Corneometer CM 825) in barrier-disrupted mice
From the text: as §1
as §2, with “treatment.” for “treatment. As for the scratching action, the scratching action of each mouse was filmed and recorded for 120 minutes in the same manner as that in Example 1 on next day after the completion of the five days barrier disruption treatment.”

[3] = tested on: formation of scales and wrinkles induced by the cutaneous barrier disruption; experiment: Visual observation of skin manifestations (scales and wrinkles) in barrier-disrupted mice
From the text: as §1
as §2, with “treatment.” for “treatment. As for the scratching action, the scratching action of each mouse was filmed and recorded for 120 minutes in the same manner as that in Example 1 on next day after the completion of the five days barrier disruption treatment.”

[4] = 10 mg/kg perorally 30 minutes before recording

C=CCN1CC[C@]23c4c5ccc(O)c4O[C@H]2C(=O)CC[C@@]3(O)[C@H]1C5 [Naloxone]
number of the scratching action based on that of the control group ([1]; 1 mg/kg subcutaneously 15 minutes before recording, significant vs control (5%)): 42.5±13.1%

CC(C)(C)c1ccc(C(O)CCCN2CCC(C(O)(c3ccccc3)c3ccccc3)CC2)cc1 (stereo not drawn) [Terfenadine]
suppressing effect on the scratching action [1, 4]: no suppressing effect was recognized
number of the scratching action based on that of the control group [1, 4]: 124.2±49.3%

OCC(O)CO [glycerol]
hydration of the stratum corneum (relative electrostatic capacitance) ([2]; 10% aqueous solution applied for 5 days, next day after the 5 days barrier disrupting treatment, 40.0±1.2 before start, control 15.5±2.1): 44.7±3.0
hydration of the stratum corneum (relative electrostatic capacitance) ([2]; 10% aqueous solution applied for one day, recovered from 20.5±1.3 after 4 days of treatment, 43.5±1.3 before start): 41.3±2.6
formation of scales and wrinkles induced by the cutaneous barrier disruption ([3]; 10% aqueous solution applied for 5 days): completely inhibited
scales and wrinkle formation ([3]; 10% aqueous solution applied for one day): slight scales and wrinkle formation was observed
number of the scratching action bouts per 120 minutes ([1]; 50 μl applied for 5 days, one hour after each barrier disruption treatment): 42.5±10.0 per 120 minutes
number of the scratching action bouts per 120 minutes ([1]; 50 μl applied for one day (twice on the fifth day)): 76.5±14.6 per 120 minutes
